Data: US11395490B2, “Herbicidal composition” (SYNGENTA CROP PROTECTION, LLC, priority 2005, dated 2022)

Key:
Assay type in all cases: in vivo
Conditions in all cases: 21 days after treatment
[1] = system: Panicum millenacearum (PANMI); experiment: Post-emergence test, Panicum millenacearum
Excerpt: (§1) The herbicidal action to be expected, We, for a given combination of two herbicides can be calculated as follows (see COLBY, S. R. “Calculating synergistic and antagonistic response of herbicide combinations”. Weeds 15, pages 20-22; 1967): We=X+[Y·(100−X)/100] wherein: X=% herbicidal action in the case of treatment with active ingredient (A) using an application rate of p kg per hectare, in comparison with untreated control (=0%). Y=% herbicidal action in the case of treatment with active ingredient (B) using an application rate of q kg per hectare, in comparison with untreated control. We=expected herbicidal action (% herbicidal action in comparison with untreated control) after treatment with active ingredient (A) and active ingredient (B) at a rate of application of p+q kg of active ingredient per hectare. If the action actually observed is greater than the expected value We, there is a synergistic effect. Trial Description, Pre-Emergence Test: Monocotyledonous and dicotyledonous test plants are sown in standard soil in plastics pots. The plants tested were: Maize (ZEAMX), Ipomea purpurea (PHBPU), Euphorbia heterophylla (EPHHL), Panicum millenacearum (PANMI). Immediately after sowing, the test compounds in aqueous suspension are applied by spraying (200 litres of water/ha). (A) was formulated as a SC50, and (B1), (B2) and (B3) were formulated as WP25; 1% adjuvant crop oil concentrate (Agridex) (v/v) was added to all treatments. The compounds were applied alone and in combination as tank mixtures. The rates of application depend on the optimum concentrations determined under field conditions and greenhouse conditions. The test plants are then cultivated in a greenhouse under optimum conditions. Evaluation of the tests is made after 21 days (% action, 100%=plants have died, 0%=no phytotoxic action).
(§2) Trial Description Post-Emergence Test: The test plants are raised in plastics pots under greenhouse conditions as far as the 2- to 3-leaf stage. A standard soil is used as the cultivation substrate. The plants tested were: Maize (ZEAMX), Ipomea purpurea (PHBPU), Sorghum vulgare (SORVU), Euphorbia heterophylla (EPHHL), Panicum millenacearum (PANMI). At the 2- to 3-leaf stage, the herbicides are applied individually and as mixtures to the test plants. The test compounds are applied in the form of an aqueous suspension in 200 litres of water/ha. (A) was formulated as a SC50, and (B1), (B2) and (B3) were formulated as WP25; 1% adjuvant crop oil concentrate (Agridex) (v/v) was added to all treatments. The compounds were applied alone and in combination as tank mixtures. The rates of application depend on the optimum concentrations determined under field conditions and greenhouse conditions. Evaluation of the tests is made after 21 days (% action, 100%=plants have died, 0%=no phytotoxic action).

Maize (ZEAMX) [2] = experiment: Pre-emergence test, Maize
Excerpt: as §1

Sorghum vulgare (SORVU) = experiment: Post-emergence test, Sorghum vulgare
Excerpt: as §1, §2

[3] = system: Panicum millenacearum (PANMI); experiment: Pre-emergence test, Panicum millenacearum
Excerpt: as §1

Ipomea purpurea (PHBPU) [4] = experiment: Pre-emergence test, Ipomea purpurea
Excerpt: as §1

Ipomea purpurea (PHBPU) [5] = experiment: Post-emergence test, Ipomea purpurea
Excerpt: as §1, §2

[6] = system: Euphorbia heterophylla (EPHHL); experiment: Pre-emergence test, Euphorbia heterophylla
Excerpt: as §1

Maize (ZEAMX) [7] = experiment: Post-emergence test, Maize
Excerpt: as §1, §2

[8] = system: Euphorbia heterophylla (EPHHL); experiment: Post-emergence test, Euphorbia heterophylla
Excerpt: as §1, §2

Structure (SMILES): CS(=O)(=O)c1ccc(C(=O)C2C(=O)CCCC2=O)c(Cl)c1COCC(F)(F)F [(B2), tembotrione]
- Observed plant damage PANMI ([1]; rate 18.75 g/ha): 0%
- Observed plant damage PANMI ([1]; rate 37.5 g/ha): 20%
- Observed plant damage PANMI ([1]; rate 75 g/ha): 20%
- Observed plant damage PANMI ([1]; rate 150 g/ha): 65%
- Observed plant damage PANMI ([1]; rate 300 g/ha): 50%
- Observed plant damage ZEAMX (Maize (ZEAMX) [2]; rate 18.75 g/ha): 0%
- Observed plant damage ZEAMX (Maize (ZEAMX) [2]; rate 37.5 g/ha): 0%
- Observed plant damage ZEAMX (Maize (ZEAMX) [2]; rate 75 g/ha): 0%
- Observed plant damage ZEAMX (Maize (ZEAMX) [2]; rate 150 g/ha): 0%
- Observed plant damage ZEAMX (Maize (ZEAMX) [2]; rate 300 g/ha): 0%
- Observed plant damage SORVU (Sorghum vulgare (SORVU); rate 18.75 g/ha): 0%
- Observed plant damage SORVU (Sorghum vulgare (SORVU); rate 37.5 g/ha): 0%
- Observed plant damage SORVU (Sorghum vulgare (SORVU); rate 75 g/ha): 0%
- Observed plant damage SORVU (Sorghum vulgare (SORVU); rate 150 g/ha): 0%
- Observed plant damage SORVU (Sorghum vulgare (SORVU); rate 300 g/ha): 0%
- Observed plant damage PANMI ([3]; rate 18.75 g/ha): 0%
- Observed plant damage PANMI ([3]; rate 37.5 g/ha): 0%
- Observed plant damage PANMI ([3]; rate 75 g/ha): 0%
- Observed plant damage PANMI ([3]; rate 150 g/ha): 40%
- Observed plant damage PANMI ([3]; rate 300 g/ha): 98%
- Observed plant damage PHBPU (Ipomea purpurea (PHBPU) [4]; rate 18.75 g/ha): 0%
- Observed plant damage PHBPU (Ipomea purpurea (PHBPU) [4]; rate 37.5 g/ha): 0%
- Observed plant damage PHBPU (Ipomea purpurea (PHBPU) [4]; rate 75 g/ha): 0%
- Observed plant damage PHBPU (Ipomea purpurea (PHBPU) [4]; rate 150 g/ha): 20%
- Observed plant damage PHBPU (Ipomea purpurea (PHBPU) [4]; rate 300 g/ha): 75%
- Observed plant damage PHBPU (Ipomea purpurea (PHBPU) [5]; rate 18.75 g/ha): 0%
- Observed plant damage PHBPU (Ipomea purpurea (PHBPU) [5]; rate 37.5 g/ha): 25%
- Observed plant damage PHBPU (Ipomea purpurea (PHBPU) [5]; rate 75 g/ha): 55%
- Observed plant damage PHBPU (Ipomea purpurea (PHBPU) [5]; rate 150 g/ha): 60%
- Observed plant damage PHBPU (Ipomea purpurea (PHBPU) [5]; rate 300 g/ha): 60%
- Observed plant damage EPHHL ([6]; rate 18.75 g/ha): 0%
- Observed plant damage EPHHL ([6]; rate 37.5 g/ha): 0%
- Observed plant damage EPHHL ([6]; rate 75 g/ha): 0%
- Observed plant damage EPHHL ([6]; rate 150 g/ha): 100%
- Observed plant damage EPHHL ([6]; rate 300 g/ha): 100%
- Observed plant damage ZEAMX (Maize (ZEAMX) [7]; rate 18.75 g/ha): 0%
- Observed plant damage ZEAMX (Maize (ZEAMX) [7]; rate 37.5 g/ha): 0%
- Observed plant damage ZEAMX (Maize (ZEAMX) [7]; rate 75 g/ha): 0%
- Observed plant damage ZEAMX (Maize (ZEAMX) [7]; rate 150 g/ha): 0%
- Observed plant damage ZEAMX (Maize (ZEAMX) [7]; rate 300 g/ha): 0%
- Observed plant damage EPHHL ([8]; rate 18.75 g/ha): 65%
- Observed plant damage EPHHL ([8]; rate 37.5 g/ha): 75%
- Observed plant damage EPHHL ([8]; rate 75 g/ha): 80%
- Observed plant damage EPHHL ([8]; rate 150 g/ha): 98%
- Observed plant damage EPHHL ([8]; rate 300 g/ha): 100%

Structure (SMILES): Cc1c(C(=O)c2cnn(C)c2O)ccc(S(C)(=O)=O)c1C1=NOCC1 [(B3), topramezone]
- Observed plant damage PANMI ([1]; rate 5 g/ha): 0%
- Observed plant damage PANMI ([1]; rate 10 g/ha): 20%
- Observed plant damage PANMI ([1]; rate 20 g/ha): 80%
- Observed plant damage PANMI ([1]; rate 40 g/ha): 90%
- Observed plant damage PANMI ([1]; rate 80 g/ha): 90%
- Observed plant damage ZEAMX (Maize (ZEAMX) [2]; rate 5 g/ha): 0%
- Observed plant damage ZEAMX (Maize (ZEAMX) [2]; rate 10 g/ha): 0%
- Observed plant damage ZEAMX (Maize (ZEAMX) [2]; rate 20 g/ha): 0%
- Observed plant damage ZEAMX (Maize (ZEAMX) [2]; rate 40 g/ha): 0%
- Observed plant damage ZEAMX (Maize (ZEAMX) [2]; rate 80 g/ha): 0%
- Observed plant damage SORVU (Sorghum vulgare (SORVU); rate 5 g/ha): 0%
- Observed plant damage SORVU (Sorghum vulgare (SORVU); rate 10 g/ha): 0%
- Observed plant damage SORVU (Sorghum vulgare (SORVU); rate 20 g/ha): 0%
- Observed plant damage SORVU (Sorghum vulgare (SORVU); rate 40 g/ha): 0%
- Observed plant damage SORVU (Sorghum vulgare (SORVU); rate 80 g/ha): 0%
- Observed plant damage PANMI ([3]; rate 5 g/ha): 0%
- Observed plant damage PANMI ([3]; rate 10 g/ha): 0%
- Observed plant damage PANMI ([3]; rate 20 g/ha): 0%
- Observed plant damage PANMI ([3]; rate 40 g/ha): 0%
- Observed plant damage PANMI ([3]; rate 80 g/ha): 98%
- Observed plant damage PHBPU (Ipomea purpurea (PHBPU) [4]; rate 5 g/ha): 0%
- Observed plant damage PHBPU (Ipomea purpurea (PHBPU) [4]; rate 10 g/ha): 0%
- Observed plant damage PHBPU (Ipomea purpurea (PHBPU) [4]; rate 20 g/ha): 0%
- Observed plant damage PHBPU (Ipomea purpurea (PHBPU) [4]; rate 40 g/ha): 0%
- Observed plant damage PHBPU (Ipomea purpurea (PHBPU) [4]; rate 80 g/ha): 55%
- Observed plant damage PHBPU (Ipomea purpurea (PHBPU) [5]; rate 5 g/ha): 35%
- Observed plant damage PHBPU (Ipomea purpurea (PHBPU) [5]; rate 10 g/ha): 55%
- Observed plant damage PHBPU (Ipomea purpurea (PHBPU) [5]; rate 20 g/ha): 20%
- Observed plant damage PHBPU (Ipomea purpurea (PHBPU) [5]; rate 40 g/ha): 25%
- Observed plant damage PHBPU (Ipomea purpurea (PHBPU) [5]; rate 80 g/ha): 80%
- Observed plant damage EPHHL ([6]; rate 5 g/ha): 0%
- Observed plant damage EPHHL ([6]; rate 10 g/ha): 0%
- Observed plant damage EPHHL ([6]; rate 20 g/ha): 0%
- Observed plant damage EPHHL ([6]; rate 40 g/ha): 0%
- Observed plant damage EPHHL ([6]; rate 80 g/ha): 30%
- Observed plant damage ZEAMX (Maize (ZEAMX) [7]; rate 5 g/ha): 0%
- Observed plant damage ZEAMX (Maize (ZEAMX) [7]; rate 10 g/ha): 0%
- Observed plant damage ZEAMX (Maize (ZEAMX) [7]; rate 20 g/ha): 0%
- Observed plant damage ZEAMX (Maize (ZEAMX) [7]; rate 40 g/ha): 0%
- Observed plant damage ZEAMX (Maize (ZEAMX) [7]; rate 80 g/ha): 20%
- Observed plant damage EPHHL ([8]; rate 5 g/ha): 0%
- Observed plant damage EPHHL ([8]; rate 10 g/ha): 20%
- Observed plant damage EPHHL ([8]; rate 20 g/ha): 50%
- Observed plant damage EPHHL ([8]; rate 40 g/ha): 65%
- Observed plant damage EPHHL ([8]; rate 80 g/ha): 90%
